From ChEMBL document CHEMBL1157050, “Synthesis and cytotoxic evaluation of N2-benzylated quaternary beta-carboline amino acid ester conjugates” (Eur J Med Chem, 2010) come the findings set out here.

What all share (assay type): functional, cell-based
A short description of test [1]: Cytotoxicity against human BGC cells by MTT assay. On the technique in general: Tetrazolium assays rely on reduction of a dye to a coloured formazan, in cell work by metabolically active cells.
For the next test, the system named is 786-0. As to the kind of experiment: Cytotoxicity against human 786-0 cells by MTT assay.
The test system of the next test is KB. As to the kind of experiment: Cytotoxicity against human KB cells by MTT assay.
In the next test the test system is 769-P. As to the kind of experiment: Cytotoxicity against human 769-P cells by MTT assay.
The test system of another test is A-375. Put plainly: Cytotoxicity against human A375 cells by MTT assay.

Molecules are shown by their SMILES. pIC50: −log10 of the molar value.

For `C[C@H](NC(=O)c1cc2c3ccccc3n(CCCc3ccccc3)c2cn1)C(=O)O`, the pIC50 in test [1] was 3.79; in the test with 786-0, 4.11; in the test on KB, 3.75; in the test on 769-P, 3.92; in the test on A-375, 4.02.

Turning to `CCCCn1c2ccccc2c2cc(C(=O)N[C@@H](CCSC)C(=O)OCC)ncc21`, the pIC50 (in test [1]; in the test on 786-0; in the test with KB; in the test on 769-P; in the test with A-375) was less than 3.70 throughout.

As for `CCOC(=O)[C@H](Cc1ccccc1)NC(=O)c1cc2c3ccccc3n(CCCc3ccccc3)c2c[n+]1Cc1ccccc1`, the pIC50 in test [1] is 4.63; in the test with 786-0, 4.63; in the test on KB it was 4.74; in the test with 769-P, 4.64; in the test with A-375, 4.67.

Take `CCCCn1c2ccccc2c2cc(C(=O)N[C@@H](CCSC)C(=O)O)ncc21`: the pIC50 in test [1] was less than 3.70; in the test on 786-0, less than 3.70; in the test on KB, less than 3.70; in the test with 769-P it was 3.98; in the test on A-375, less than 3.70.

Consider `CCCCn1c2ccccc2c2cc(C(=O)N[C@@H](Cc3ccccc3)C(=O)OCC)[n+](Cc3ccccc3)cc21`, for which the negative-log IC50 (pIC50) in test [1] is 4.67; with 786-0 it was 4.82; with KB it was 4.95; with 769-P, 4.72; in the test on A-375, 4.38.

As for `CCCCn1c2ccccc2c2cc(C(=O)N[C@H](C(=O)OC)C(C)C)ncc21`, the negative logarithm of the IC50 (pIC50) (in test [1]; in the test on 786-0; in the test with KB; with 769-P; in the test with A-375) was less than 3.70 throughout.

As to `CCOC(=O)[C@H](CCSC)NC(=O)c1cc2c3ccccc3n(CCCc3ccccc3)c2c[n+]1Cc1ccccc1`, the pIC50 in test [1] is 4.92; in the test on 786-0 it was 5.00; with KB, 5.03; with 769-P, 5.12; with A-375, 5.14.

In the case of `CCCCn1c2ccccc2c2cc(C(=O)N[C@@H](C)C(=O)OC)ncc21`, the pIC50 was less than 3.70 in test [1]; less than 3.70 with 786-0; less than 3.70 in the test with KB; 4.57 with 769-P; less than 3.70 in the test with A-375.

`CCOC(=O)[C@H](Cc1ccccc1)NC(=O)c1cc2c3ccccc3n(Cc3ccccc3)c2cn1`: the pIC50 (in test [1]; with 786-0; in the test on KB; in the test with 769-P; in the test on A-375) was less than 3.70 throughout.

For `CCOC(=O)[C@H](Cc1ccccc1)NC(=O)c1cc2c3ccccc3n(Cc3ccccc3)c2c[n+]1Cc1ccccc1`, the pIC50 in test [1] is 4.03; in the test with 786-0, 4.16; in the test on KB it was 4.29; with 769-P it was 4.87; with A-375, 4.59.

On to `CCOC(=O)[C@H](CCSC)NC(=O)c1cc2c3ccccc3n(CCCc3ccccc3)c2cn1`, for which the negative logarithm of the IC50 (pIC50) was less than 3.70 in test [1]; less than 3.70 with 786-0; 3.75 with KB; less than 3.70 in the test with 769-P; less than 3.70 with A-375.

In the case of `CSCC[C@H](NC(=O)c1cc2c3ccccc3n(CCCc3ccccc3)c2cn1)C(=O)O`, the pIC50 in test [1] is 3.87; with 786-0, 4.15; in the test with KB, 4.02; in the test with 769-P it was 3.94; with A-375, 4.23.

Take `CC(=O)O[C@H]1C(=O)[C@@]2(C)[C@H]([C@H](OC(=O)c3ccccc3)[C@]3(O)C[C@H](OC(=O)[C@H](O)[C@@H](NC(=O)c4ccccc4)c4ccccc4)C(C)=C1C3(C)C)[C@]1(OC(C)=O)CO[C@@H]1C[C@@H]2O` [PACLITAXEL]: the pIC50 was 5.82 in test [1]; more than 7.10 in the test on 786-0; 7.10 with KB; 5.15 with 769-P; 6.09 in the test with A-375.

On to `CCCCn1c2ccccc2c2cc(C(=O)N[C@@H](Cc3ccccc3)C(=O)OCC)nc(C)c21`, for which the pIC50 (in test [1]; in the test with 786-0; with KB; in the test with 769-P; in the test on A-375) was less than 3.70 each time.

Turning to `CCCCn1c2ccccc2c2cc(C(=O)N[C@@H](Cc3ccc(O)cc3)C(=O)OC)ncc21`, the pIC50 (in test [1]; in the test on 786-0; in the test on KB; in the test with 769-P; with A-375) was less than 3.70 each time.

`CCCCn1c2ccccc2c2cc(C(=O)N[C@@H](Cc3ccc(O)cc3)C(=O)O)ncc21`: the pIC50 in test [1] was less than 3.70; with 786-0 it was less than 3.70; in the test with KB, less than 3.70; in the test on 769-P, less than 3.70; in the test on A-375 it was 3.92.

Turning to `CCOC(=O)[C@@H](NC(=O)c1cc2c3ccccc3n(CCCc3ccccc3)c2c[n+]1Cc1ccccc1)C(C)C`, the pIC50 in test [1] is 4.75; with 786-0, 5.40; with KB it was 4.90; with 769-P, 4.85; in the test with A-375, 4.98.

On to `CCCCn1c2ccccc2c2cc(C(=O)N[C@@H](Cc3ccccc3)C(=O)OCC)ncc21`, for which the pIC50 was less than 3.70 in test [1]; less than 3.70 in the test on 786-0; 3.95 in the test on KB; 4.49 with 769-P; less than 3.70 in the test with A-375.

With `CSCC[C@H](NC(=O)c1cc2c3ccccc3n(Cc3ccccc3)c2cn1)C(=O)O`, the pIC50 was less than 3.70 in test [1]; less than 3.70 in the test on 786-0; 3.87 in the test with KB; 3.84 in the test on 769-P; 3.81 in the test with A-375.

For `COC(=O)[C@H](C)NC(=O)c1cc2c3ccccc3n(CCCc3ccccc3)c2cn1`, the pIC50 in test [1] is 3.83; in the test on 786-0 it was less than 3.70; in the test on KB it was less than 3.70; in the test on 769-P, less than 3.70; in the test with A-375, less than 3.70.

For `CCOC(=O)[C@H](Cc1ccccc1)NC(=O)c1cc2c3ccccc3n(CCCc3ccccc3)c2cn1`, the pIC50 is less than 3.70 in test [1]; less than 3.70 in the test with 786-0; 4.05 in the test on KB; 3.73 in the test with 769-P; less than 3.70 with A-375.

`CCOC(=O)[C@@H](NC(=O)c1cc2c3ccccc3n(CCCc3ccccc3)c2cn1)C(C)C`: the pIC50 (in test [1]; in the test with 786-0; in the test on KB; in the test on 769-P; with A-375) was less than 3.70 each time.

On to `CCCCn1c2ccccc2c2cc(C(=O)N[C@@H](Cc3ccccc3)C(=O)OC)ncc21`, for which the pIC50 (in test [1]; in the test on 786-0; in the test with KB; with 769-P; in the test with A-375) was less than 3.70 each time.

With `CCCCn1c2ccccc2c2cc(C(=O)N[C@@H](CCSC)C(=O)OCC)nc(C)c21`, the pIC50 (in test [1]; with 786-0; in the test with KB; in the test with 769-P; with A-375) was less than 3.70 in each case.

In the case of `CCCCn1c2ccccc2c2cc(C(=O)N[C@@H](Cc3ccccc3)C(=O)O)ncc21`, the pIC50 in test [1] was less than 3.70; in the test on 786-0 it was 3.72; in the test on KB it was 3.81; in the test with 769-P it was 3.94; in the test with A-375, 3.80.

Take `O=C(N[C@@H](Cc1ccccc1)C(=O)O)c1cc2c3ccccc3n(CCCc3ccccc3)c2cn1`: the pIC50 in test [1] was 4.12; with 786-0, 4.28; in the test with KB it was 4.41; in the test with 769-P, 5.10; with A-375, 4.47.

`CCOC(=O)[C@H](CCSC)NC(=O)c1cc2c3ccccc3n(Cc3ccccc3)c2cn1`: the pIC50 (in test [1]; with 786-0; in the test with KB; in the test on 769-P; in the test with A-375) was less than 3.70 in each case.

`CC(C)[C@H](NC(=O)c1cc2c3ccccc3n(CCCc3ccccc3)c2cn1)C(=O)O`: the pIC50 was 3.86 in test [1]; 4.07 in the test on 786-0; 3.97 in the test with KB; 4.11 in the test with 769-P; 4.24 with A-375.

In the case of `CCCCn1c2ccccc2c2cc(C(=O)N[C@@H](CCSC)C(=O)OCC)[n+](Cc3ccccc3)cc21`, the pIC50 in test [1] is 4.87; with 786-0 it was 5.77; in the test with KB it was 4.97; with 769-P, 5.12; in the test on A-375, 5.09.

As to `CCCCn1c2ccccc2c2cc(C(=O)N[C@H](C(=O)OCC)C(C)C)[n+](Cc3ccccc3)cc21`, the pIC50 in test [1] was 4.35; in the test on 786-0, 4.84; with KB it was 4.55; in the test on 769-P, 4.86; with A-375 it was 4.65.

For the compound `CCOC(=O)[C@@H](NC(=O)c1cc2c3ccccc3n(Cc3ccccc3)c2c[n+]1Cc1ccccc1)C(C)C`, the pIC50 is 4.66 in test [1]; 4.97 in the test on 786-0; 4.60 in the test with KB; 4.90 in the test on 769-P; 4.80 in the test with A-375.

The term pIC50 denotes −log10 of the IC50, conventionally taken in molar units.
